According to ChEMBL document CHEMBL1134831, “2-(3,5-Dimethylphenyl)tryptamine derivatives that bind to the GnRH receptor” (Bioorg Med Chem Lett, 2001):

Biological target: T1, Gonadotropin-releasing hormone receptor (Rattus norvegicus, UniProt P30969)
T1 sequence (P30969 whole entry): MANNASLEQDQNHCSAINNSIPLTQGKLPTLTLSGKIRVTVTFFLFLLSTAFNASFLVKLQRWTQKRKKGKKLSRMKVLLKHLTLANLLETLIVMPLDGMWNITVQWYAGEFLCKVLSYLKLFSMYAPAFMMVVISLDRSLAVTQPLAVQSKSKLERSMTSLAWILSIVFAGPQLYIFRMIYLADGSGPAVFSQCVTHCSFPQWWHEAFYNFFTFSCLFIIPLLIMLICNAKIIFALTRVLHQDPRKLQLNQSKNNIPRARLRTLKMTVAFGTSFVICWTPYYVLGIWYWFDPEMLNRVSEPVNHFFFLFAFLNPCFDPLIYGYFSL
Assay: Inhibition of rat GnRH receptor binding

| Structure (SMILES) | IC50 |
| --- | --- |
| Cc1cc(C)cc(-c2[nH]c3ccccc3c2CCNCCCCc2ccc([N+](=O)[O-])cc2)c1 | 500 nM |
| Cc1cc(C)cc(-c2[nH]c3ccccc3c2CCNCCCCc2ccc(N)cc2)c1 | 300 nM |
| Cc1cc(C)cc(-c2[nH]c3ccccc3c2CCNCCCCc2ccc(F)cc2)c1 | 300 nM |
| Cc1cc(C)cc(-c2[nH]c3ccccc3c2CCNCCCCc2ccc(NS(=O)(=O)C(C)C)cc2)c1 | 220 nM |
| Cc1cc(C)cc(-c2[nH]c3ccccc3c2CCNCCCCc2ccc(NS(=O)(=O)c3ccccc3)cc2)c1 | 300 nM |
| CC(=O)Nc1ccc(CCCCNCCc2c(-c3cc(C)cc(C)c3)[nH]c3ccccc23)cc1 | 200 nM |
| CCS(=O)(=O)Nc1ccc(CCCCNCCc2c(-c3cc(C)cc(C)c3)[nH]c3ccccc23)cc1 | 200 nM |

Stronger by IC50, values ahead:

| IC50 | Structure (SMILES) |
| --- | --- |
| 28 nM | CCNC(=O)Nc1ccc(CCCCNCCc2c(-c3cc(C)cc(C)c3)[nH]c3ccccc23)cc1 |
| 48 nM | CNC(=O)Nc1ccc(CCCCNCCc2c(-c3cc(C)cc(C)c3)[nH]c3ccccc23)cc1 |
| 36 nM | Cc1cc(C)cc(-c2[nH]c3ccccc3c2CCNCCCCc2ccc(S(N)(=O)=O)cc2)c1 |
| 47 nM | CNS(=O)(=O)Nc1ccc(CCCCNCCc2c(-c3cc(C)cc(C)c3)[nH]c3ccccc23)cc1 |
| 40 nM | CCNS(=O)(=O)Nc1ccc(CCCCNCCc2c(-c3cc(C)cc(C)c3)[nH]c3ccccc23)cc1 |
